How the values were obtained:
[1] = tested on: Beet Armyworm (Spodoptera exigua, LAPHEG); test: Bioassay on Beet Armyworm (BAW), 128-well diet tray assay; format: in vivo; details: 168 h, 50 μg/cm^2 on artificial diet, second instar larvae, 25° C., five to seven days, average of eight wells, read-out: BAW % Control (or Mortality) rating
Procedure: (§1) Bioassays on Beet Armyworm (Spodoptera exigua, LAPHEG) (“BAW”) and Cabbage Looper (Trichoplusia ni, TRIPNI) (“CL”)
(§2) Certain molecules disclosed in this document were tested against BAW and CL using procedures described in the following examples. In the reporting of the results, the “BAW & CL Rating Table” was used (See Table Section).
Bioassays on BAW were conducted using a 128-well diet tray assay. One to five second instar BAW larvae were placed in each well (3 mL) of the diet tray that had been previously filled with 1 mL of artificial diet to which 50 μg/cm^2 of the test molecule (dissolved in 50 μL of 90:10 acetone-water mixture) had been applied (to each of eight wells) and then allowed to dry. Trays were covered with a clear self-adhesive cover, vented to allow gas exchange, and held at 25° C., 14:10 light-dark for five to seven days. Percent mortality was recorded for the larvae in each well; activity in the eight wells was then averaged. The results are indicated in the table entitled “Table ABC: Biological Results” (See Table Section).

[2] = tested on: Cabbage Looper (Trichoplusia ni, TRIPNI); test: Bioassay on Cabbage Looper (CL), 128-well diet tray assay; format: in vivo; details: 168 h, 50 μg/cm^2 on artificial diet, second instar larvae, 25° C., five to seven days, average of eight wells, read-out: CL % Control (or Mortality) rating
Procedure: as §1, §2
Bioassays on CL were conducted using a 128-well diet tray assay. One to five second instar CL larvae were placed in each well (3 mL) of the diet tray that had been previously filled with 1 mL of artificial diet to which 50 μg/cm^2 of the test molecule (dissolved in 50 μL of 90:10 acetone-water mixture) had been applied (to each of eight wells) and then allowed to dry. Trays were covered with a clear self-adhesive cover, vented to allow gas exchange, and held at 25° C., 14:10 light-dark for five to seven days. Percent mortality was recorded for the larvae in each well; activity in the eight wells was then averaged. The results are indicated in the table entitled “Table ABC: Biological Results” (See Table Section).

SMILES | mortality at 50 µg/cm2 [1] | mortality at 50 µg/cm2 [2]
COC(C)c1ccc(C)cc1N1C(=O)CS/C1=N\C(=O)Nc1ccc(CNc2ncn(-c3ccc(OC(F)(F)F)cc3)n2)cc1 (stereo not shown) [F1, (Z)-1-(3-(2-(1-Methoxyethyl)-5-methylphenyl)-4-oxothiazolidin-2-ylidene)-3-(4-(((1-(4-(trifluoromethoxy)phenyl)-1H-1,2,4-triazol-3-yl)amino)methyl)phenyl)urea] | 50 to 100% | 50 to 100%
COCc1ccc(C)cc1N1C(=O)CS/C1=N\C(=O)Nc1ccc(CNc2ncn(-c3ccc(OC(F)(F)F)cc3)n2)cc1 [F4, (Z)-1-(3-(2-(Methoxymethyl)-5-methylphenyl)-4-oxothiazolidin-2-ylidene)-3-(4-(((1-(4-(trifluoromethoxy)phenyl)-1H-1,2,4-triazol-3-yl)amino)methyl)phenyl)urea] | 50 to 100% | 50 to 100%
Cc1ccc(C(C)C)c(N2C(=O)CS/C2=N\C(=O)Nc2ccc(CNc3ncn(-c4ccc(OC(F)(F)F)cc4)n3)c(Cl)c2)c1 [F7, (Z)-1-(3-Chloro-4-(((1-(4-(trifluoromethoxy)phenyl)-1H-1,2,4-triazol-3-yl)amino)methyl)phenyl)-3-(3-(2-isopropyl-5-methylphenyl)-4-oxothiazolidin-2-ylidene)urea] | 50 to 100% | 50 to 100%
CCCc1ccc(C)cc1N1C(=O)CS/C1=N\C(=O)Nc1ccc(CNc2ncn(-c3ccc(OC(F)(F)F)cc3)n2)c(Cl)c1 [F8, (Z)-1-(3-Chloro-4-(((1-(4-(trifluoromethoxy)phenyl)-1H-1,2,4-triazol-3-yl)amino)methyl)phenyl)-3-(3-(5-methyl-2-propylphenyl)-4-oxothiazolidin-2-ylidene)urea] | 50 to 100% | 50 to 100%
COCc1ccc(C)cc1N1C(=O)CS/C1=N\C(=O)Nc1ccc(CNc2ncn(-c3ccc(OC(F)(F)F)cc3)n2)c(Cl)c1 [F9, (Z)-1-(3-Chloro-4-(((1-(4-(trifluoromethoxy)phenyl)-1H-1,2,4-triazol-3-yl)amino)methyl)phenyl)-3-(3-(2-(methoxymethyl)-5-methylphenyl)-4-oxothiazolidin-2-ylidene)urea] | 50 to 100% | 50 to 100%
Cc1ccc(C(C)C)c(N2C(=O)CS/C2=N\C(=O)Nc2ccc(CNc3ncn(-c4ccc(OC(F)(F)F)cc4)n3)cn2)c1 [F11, (Z)-1-(3-(2-Isopropyl-5-methylphenyl)-4-oxothiazolidin-2-ylidene)-3-(5-(((1-(4-(trifluoromethoxy)phenyl)-1H-1,2,4-triazol-3-yl)amino)methyl)pyridin-2-yl)urea] | 50 to 100% | 50 to 100%
CCCc1ccc(C)cc1N1C(=O)CS/C1=N\C(=O)Nc1ccc(CNc2ncn(-c3ccc(OC(F)(F)F)cc3)n2)cn1 [F12, (Z)-1-(3-(5-Methyl-2-propylphenyl)-4-oxothiazolidin-2-ylidene)-3-(5-(((1-(4-(trifluoromethoxy)phenyl)-1H-1,2,4-triazol-3-yl)amino)methyl)pyridin-2-yl)urea] | 50 to 100% | 50 to 100%
COCc1ccc(C)cc1N1C(=O)CS/C1=N\C(=O)Nc1ccc(CNc2ncn(-c3ccc(OC(F)(F)F)cc3)n2)cn1 [F13, (Z)-1-(3-(2-(Methoxymethyl)-5-methylphenyl)-4-oxothiazolidin-2-ylidene)-3-(5-(((1-(4-(trifluoromethoxy)phenyl)-1H-1,2,4-triazol-3-yl)amino)methyl)pyridin-2-yl)urea] | 50 to 100% | 50 to 100%
COCc1ccc(C)cc1N1C(=O)CS/C1=N\C(=O)Nc1ccc(CN(C)c2ncn(-c3ccc(OC(F)(F)F)cc3)n2)cn1 [F14, (Z)-1-(3-(2-(Methoxymethyl)-5-methylphenyl)-4-oxothiazolidin-2-ylidene)-3-(5-((methyl(1-(4-(trifluoromethoxy)phenyl)-1H-1,2,4-triazol-3-yl)amino)methyl)pyridin-2-yl)urea] | 50 to 100% | 50 to 100%
Cc1ccc(C(C)C)c(N2C(=O)CS/C2=N\C(=O)Nc2ccc(CN(C)c3ncn(-c4ccc(OC(F)(F)F)cc4)n3)cn2)c1 [F16, (Z)-1-(3-(2-Isopropyl-5-methylphenyl)-4-oxothiazolidin-2-ylidene)-3-(5-((methyl(1-(4-(trifluoromethoxy)phenyl)-1H-1,2,4-triazol-3-yl)amino)methyl)pyridin-2-yl)urea] | 50 to 100% | 50 to 100%
COCc1ccc(C)cc1N1C(=O)CS/C1=N\C(=O)Nc1ccc(CN(C)c2ncn(-c3ccc(OC(F)(F)F)cc3)n2)cc1F [F17, (Z)-1-(2-Fluoro-4-((methyl(1-(4-(trifluoromethoxy)phenyl)-1H-1,2,4-triazol-3-yl)amino)methyl)phenyl)-3-(3-(2-(methoxymethyl)-5-methylphenyl)-4-oxothiazolidin-2-ylidene)urea] | 50 to 100% | 50 to 100%
COCc1ccc(C)cc1N1C(=O)CS/C1=N\C(=O)Nc1ccc(CN(C)c2ncn(-c3ccc(OC(F)(F)F)cc3)n2)c(Cl)c1 [F18, (Z)-1-(3-Chloro-4-((methyl(1-(4-(trifluoromethoxy)phenyl)-1H-1,2,4-triazol-3-yl)amino)methyl)phenyl)-3-(3-(2-(methoxymethyl)-5-methylphenyl)-4-oxothiazolidin-2-ylidene)urea] | 0 to 50% | 0 to 50%
CCCc1ccc(C)cc1N1C(=O)CS/C1=N\C(=O)Nc1ccc(CN(C)c2ncn(-c3ccc(OC(F)(F)F)cc3)n2)c(Cl)c1 [F19, (Z)-1-(3-Chloro-4-((methyl(1-(4-(trifluoromethoxy)phenyl)-1H-1,2,4-triazol-3-yl)amino)methyl)phenyl)-3-(3-(5-methyl-2-propylphenyl)-4-oxothiazolidin-2-ylidene)urea] | 0% | 0%
Cc1ccc(C(C)C)c(N2C(=O)CS/C2=N\C(=O)Nc2ccc(CN(C)c3ncn(-c4ccc(OC(F)(F)F)cc4)n3)c(Cl)c2)c1 [F20, (Z)-1-(3-Chloro-4-((methyl(1-(4-(trifluoromethoxy)phenyl)-1H-1,2,4-triazol-3-yl)amino)methyl)phenyl)-3-(3-(2-isopropyl-5-methylphenyl)-4-oxothiazolidin-2-ylidene)urea] | 0 to 50% | 50 to 100%
Cc1ccc(C(C)C)c(N2C(=O)CS/C2=N\C(=O)Nc2ccc(CN(C)c3ncn(-c4ccc(OC(F)(F)F)cc4)n3)cc2F)c1 [F22, (Z)-1-(2-Fluoro-4-((methyl(1-(4-(trifluoromethoxy)phenyl)-1H-1,2,4-triazol-3-yl)amino)methyl)phenyl)-3-(3-(2-isopropyl-5-methylphenyl)-4-oxothiazolidin-2-ylidene)urea] | 50 to 100% | 50 to 100%
CCCc1ccc(C)cc1N1C(=O)CS/C1=N\C(=O)Nc1ccc(CN(C)c2ncn(-c3ccc(OC(F)(F)F)cc3)n2)cc1 [F23, (Z)-1-(4-((Methyl(1-(4-(trifluoromethoxy)phenyl)-1H-1,2,4-triazol-3-yl)amino)methyl)phenyl)-3-(3-(5-methyl-2-propylphenyl)-4-oxothiazolidin-2-ylidene)urea] | 50 to 100% | 50 to 100%
Cc1ccc(C(C)C)c(N2C(=O)CS/C2=N\C(=O)Nc2ccc(CN(C)c3ncn(-c4ccc(OC(F)(F)F)cc4)n3)cc2)c1 [F24, (Z)-1-(3-(2-Isopropyl-5-methylphenyl)-4-oxothiazolidin-2-ylidene)-3-(4-((methyl(1-(4-(trifluoromethoxy)phenyl)-1H-1,2,4-triazol-3-yl)amino)methyl)phenyl)urea] | 50 to 100% | 50 to 100%
Cc1ccc(C(C)C)c(N2C(=O)CS/C2=N\C(=O)Nc2ccc(C(=O)N(C)c3ncn(-c4ccc(OC(F)(F)F)cc4)n3)cc2)c1 [F25, (Z)-4-(3-(3-(2-isopropyl-5-methylphenyl)-4-oxothiazolidin-2-ylidene)ureido)-N-methyl-N-(1-(4-(trifluoromethoxy)phenyl)-1H-1,2,4-triazol-3-yl)benzamide] | 50 to 100% | 50 to 100%
Cc1ccc(C(C)C)c(N2C(=O)CS/C2=N\C(=O)Nc2ccc(NC(=O)c3ncn(-c4ccc(OC(F)(F)F)cc4)n3)cc2)c1 [F26, (Z)—N-(4-(3-(3-(2-Isopropyl-5-methylphenyl)-4-oxothiazolidin-2-ylidene)ureido)phenyl)-1-(4-(trifluoromethoxy)phenyl)-1H-1,2,4-triazole-3-carboxamide] | 50 to 100% | 50 to 100%
Cc1ccc(C(C)C)c(N2C(=O)CS/C2=N\C(=O)Nc2ccc(N(C)C(=O)c3ncn(-c4ccc(OC(F)(F)F)cc4)n3)cc2)c1 [F27, (Z)—N-(4-(3-(3-(2-Isopropyl-5-methylphenyl)-4-oxothiazolidin-2-ylidene)ureido)phenyl)-N-methyl-1-(4-(trifluoromethoxy)phenyl)-1H-1,2,4-triazole-3-carboxamide] | 50 to 100% | 50 to 100%

From patent US9661853B2, “Molecules having pesticidal utility, and intermediates, compositions, and processes, related thereto” (Dow AgroSciences LLC, priority 2015, dated 2017)
